Measured values from US8563578B2, “Antitumor properties of NO modified protease inhibitors” (Onconox APS, priority 2008, dated 2013).

Columns and labels:
[1] = system: C6 cells; test: Cell cycle / apoptosis by propidium iodide flow cytometry, C6; assay type: cell-based, rat; conditions: 18.8 μM, 24 h
Protocol: (§1) Apoptotic cell death was assessed by flow cytometry analysis of DNA fragmentation in cells stained with DNA-binding dye propidium iodide (PI). Following a 24 h incubation in 6-well plate, cells (2×10^5/well) were detached with trypsin, washed and fixed in 70% ethanol at 4° C. for 30 min. After washing in PBS, cells were resuspended in PBS containing 1 mg/ml RNase and propidium iodide (40 μg/ml) and kept at 37° C. in the dark for 30 min. Red fluorescence was analyzed with FACSCalibur flow cytometer (BD, Heidelberg, Germany) and distribution of cells among cell cycle phases was determined with Cell Quest Pro software (BD). Hypodiploid cells in sub-G0/G1 compartment were considered apoptotic.
(§2) FIG. 4. […] Results are calculated as indicated in materials and methods and presented as mean±SD from representative of three independent experiment (*p <0.05). […] After 24 h of cultivation without or with drugs, cells were stained with AO orange (B) or PI (C) and analyzed by flow cytometry. The data are presented as mean±SD from three independent experiments. *p<0.05, refers to untreated cultures. […] Cells were incubated with 18.8 μM of Sag or Saq-NO2 for 24 h. After that, the drugs were either removed or not from the cells and incubated for additional 24 h. Cell viability was determined by CV test after 24 and 48 h of incubation (right panels). The data are presented as mean±SD from three independent experiments. *p<0.05, refers to untreated cultures.

[2] = system: B16 cells; test: Cell cycle / apoptosis by propidium iodide flow cytometry, B16; assay type: cell-based, mouse; conditions: 18.8 μM, 24 h
Protocol: as §1, §2

[3] = system: C6 cells; test: LDH release assay, C6; assay type: cell-based; conditions: 24 h, different doses
Protocol: (§3) Reduction of 3-4,5-dimethylthiazol-2-yl)-2,5-diphenyltetrazolium bromide (MTT) to formazan depends on mitochondrial activity of cultured cells, absorption of crystal violet dye correlates with the number of adherent, live cells, while the release of cytosolic lactate dehydrogenase (LDH) indicates the disruption of membrane integrity caracteristic for necrotic cells. The cells were seeded in flat-bottom 96-well plates in a final volume of 200 μl of culture medium containing different agents, and the assays were performed after 24 h incubation exactly as previously described (Mijatovic et al. 2004, Decker et al., 1998). Mitohondrial-dependent production of formazan and intensity of absorbed crystal violet by adherent cells were assessed by an automated microplate reader at 570 nm, while the pyruvate-mediated conversion of 2,4-dinitrophenylhydrazine into visible hydrazone precipitate in LDH assay was measured at 492 nm. The % of cytotoxicity as indicated by LDH release was calculated as: (E−C)/(T−C)×100, where E is the experimental absorbance of cell cultures, C is the control absorbance of cell-free culture medium, and T is the absorbance corresponding to the maximal (100%) LDH release of Triton-lysed cells.
FIG. 4. […] Results are calculated as indicated in materials and methods and presented as mean±SD from representative of three independent experiment (*p <0.05). […]

[4] = system: C6 cells; test: Autophagy detection by acridin orange staining, C6; assay type: cell-based, rat; conditions: 18.8 μM, 24 h
Protocol: (§4) Vital dye acridin orange (AO) was used for detection of autophagy. The intensity of red fluorescence correlates with acidity and volume of present autophagic organelles (Kanzawa et al. 2004). Assay was performed as follows: the cells were cultured in 6-well plate (2×10^5/well) 24 h in the presence of the drug, detached with trypsin and stained with 1 μg/ml AO in RPMI without phenol red for 15 min at RT. After the end of incubation period cells were washed and resuspended in PBS. Green and red fluorescence emission was measured with a FACSCalibur and analyzed using CellQuest software.
as §2

[5] = system: transformed human (HeLa, BT20, HCC 1419, PC-3) and rodent (C6, B16) cell lines; test: Cell viability by crystal violet assay, tumor cell line panel; assay type: cell-based, rat, mouse; conditions: 24 h
Source text: Rat glioma C6 and human glioblastoma U251 cell lines were a kind gift from Dr. Pedro Tranque (Universidad de Castilla-La Mancha, Albacete, Spain), murine melanoma B 16, and human adenocarcinoma HeLa, were a kind gift from Dr. Sinisa Radulovic (Institute for Oncology and Radiology of Serbia, Belgrade, Serbia) while mouse fibrosarcoma L929 was obtained from the European Collection of Animal Cell Cultures (Salisbury, UK). Human breast HCC1419 and prostate PC-3 cells were purchased from LGC Promochem srl (Venezia, Italy). Primary mouse fibroblasts and rat astrocytes were prepared as described (Mijatovic et al. 2004). Cells were grown in HEPES-buffered RPMI 1640 medium supplemented with 5% FCS, 2 mM glutamine, 0.01% sodium pyruvate, 5×10^−5 M 2-mercaptoethanol, and antibiotics (culture medium) at 37° C. in a humidified atmosphere with 5% CO2. After the conventional trypsinization procedure cells were seeded at 1×10^4/well in 96-well, 2×10^5/well in 6-well plate or 3×10^4/well in 4-well chamber slide, cultivated overnight, and then exposed to drug. […]
as §3, with “The cells were seeded in flat-bottom 96-well plates in a final volume of 200 μl of culture medium containing different agents, and the assays were performed after 24 h incubation exactly as previously described (Mijatovic et al. 2004, Decker et al., 1998).” left out
FIG. 2. […] Cell viability was then evaluated by CV test. […]

[6] = system: B16 cells; test: Autophagy detection by acridin orange staining, B16; assay type: cell-based, mouse; conditions: 18.8 μM, 24 h
Protocol: as §4, §2

| Compound | cell cycle distribution [1] | cell cycle distribution [2] | LDH release (cytotoxicity, necrosis) [3] | amount of acidic vesicles in the cytoplasm (autophagy) [4] | anti-tumor potential (viability of tumor cell lines) [5] | amount of acidic vesicles in the cytoplasm (autophagy) [6] | percentage of cells in subG compartment (apoptosis) [1] | apoptosis [2] | IC50 value relative to the parent drug ([5]; tumor cell lines) |
| --- | --- | --- | --- | --- | --- | --- | --- | --- | --- |
| CC(C)(C)NC(=O)[C@@H]1C[C@@H]2CCCC[C@@H]2CN1C[C@@H](O)[C@H](Cc1ccccc1)NC(=O)[C@H](CC(N)=O)NC(=O)c1ccc2ccccc2n1 [Saq, Saquinavir, reference compound] | did not show considerably different distribution from control | did not show considerably different distribution from control | induced LDH release in both cell lines in a dose-dependent way | absence of autophagia | strong anti-tumor potential | absence of autophagia | – | – | – |
| CC(C)(C)NC(=O)[C@@H]1C[C@@H]2CCCC[C@@H]2CN1C[C@@H](O[N+](=O)[O-])[C@H](Cc1ccccc1)NC(=O)[C@H](CC(N)=O)NC(=O)c1ccc2ccccc2n1 [Saq-NO2, nitric ester of Saquinavir] | particularly marked arrest in G0/G1 | accumulation of cells in G2/M phase | significant percentage of C6 cytotoxicity was detected only upon the highest dose | absence of autophagia | strong anti-tumor potential | absence of autophagia | slightly increased | statistically significant apoptosis | two to four fold lower |
